Columns and labels:
Cdr1p (Cdr1p-GFP) [1] = biological target: T1, Cdr1p (Cdr1p-GFP) (Candida albicans, UniProt Q5ANA3, DEL905-905); assay: cell-based
T1 construct: gene CDR1
Description: (§1) R6G binding, from drug transport kinetics of overexpressing yeast (method not detailed) on Cdr1p (Cdr1p-GFP)

Cdr1p (Cdr1p-GFP) [2] = biological target: T2, Cdr1p (Cdr1p-GFP) (Candida albicans, UniProt Q5ANA3, DEL903-903); assay: cell-based
T2 construct: gene CDR1
Description: as §1

Cdr1p (Cdr1p-GFP) [3] = biological target: T3, Cdr1p (Cdr1p-GFP) (Candida albicans, UniProt Q5ANA3); assay: R6G binding, from drug transport kinetics of overexpressing yeast (method not detailed); assay type: cell-based
T3 construct: gene CDR1; plasmid pPSCDR1-GFP integrated at PDR5 locus of S. cerevisiae AD1-8u-; plasma membrane fractions or cells

[4] = tested on: Nc1ncnc2c1ncn2[C@@H]1O[C@H](COP(=O)(O)OP(=O)(O)OP(=O)(O)O)[C@@H](O)[C@H]1O; assay: cells, lysate or membranes; details: 30 °C, Mg-ATP, GFP-tagged wild type
Description: oligomycin-sensitive ATPase, Pi release, plasma membrane fraction; Lineweaver-Burk on Cdr1p (Cdr1p-GFP)

With `CCN=c1cc2oc3cc(NCC)c(C)cc3c(-c3ccccc3C(=O)OCC)c-2cc1C` [Rhodamine 6G] as the molecule, how does the Kd (Cdr1p (Cdr1p-GFP) [1]) read?
Its Kd is 25 ± 2 µM.

What about the Kd (Cdr1p (Cdr1p-GFP) [2]) of the same molecule?
Its Kd is 11.9 ± 1.9 µM.

What about the Kd (Cdr1p (Cdr1p-GFP) [3]) of the same molecule?
The Kd was 9 ± 1.8 µM.

“Cdr1p (Cdr1p-GFP) (Candida albicans SC5314)” was tested. Which Km [4] did it give?
The Km was 2100 ± 500 µM.

And the Vmax [4]?
The Vmax was 0.105 µmol/min/mg.

— publication PMC4890005, “Newly identified motifs in Candida albicans Cdr1 protein nucleotide binding domains are pleiotropic drug resistance subfamily-specific and functionally asymmetric” (Scientific Reports, 2016)
